Legend:
Assay type in all cases: cell-based
[1] = target: T1, N-acylethanolamine acid amidase (hNAAA) (Homo sapiens, UniProt Q02083); assay: competitive ABPP against probe […] in intact NAAA-HEK293 cells
T1 sequence (Q02083 29-125): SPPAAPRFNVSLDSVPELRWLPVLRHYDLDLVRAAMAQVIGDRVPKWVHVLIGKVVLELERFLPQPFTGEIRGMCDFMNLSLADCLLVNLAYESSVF
T1 sequence (Q02083 126-359): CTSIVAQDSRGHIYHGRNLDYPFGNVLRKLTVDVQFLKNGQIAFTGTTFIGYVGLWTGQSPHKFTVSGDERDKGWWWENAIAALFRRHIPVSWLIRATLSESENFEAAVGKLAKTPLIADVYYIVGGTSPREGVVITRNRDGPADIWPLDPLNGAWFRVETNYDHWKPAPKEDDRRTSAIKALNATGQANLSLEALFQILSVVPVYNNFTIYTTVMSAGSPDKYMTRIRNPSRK

[2] = target: T2, acid ceramidase (AC) (Rattus norvegicus, UniProt Q6P7S1); assay: enzyme inhibition IC50
T2 sequence (Q6P7S1 21-141): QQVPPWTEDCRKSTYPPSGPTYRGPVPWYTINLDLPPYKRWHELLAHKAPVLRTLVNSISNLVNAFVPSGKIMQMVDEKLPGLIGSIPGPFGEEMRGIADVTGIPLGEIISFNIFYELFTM
T2 sequence (Q6P7S1 142-394): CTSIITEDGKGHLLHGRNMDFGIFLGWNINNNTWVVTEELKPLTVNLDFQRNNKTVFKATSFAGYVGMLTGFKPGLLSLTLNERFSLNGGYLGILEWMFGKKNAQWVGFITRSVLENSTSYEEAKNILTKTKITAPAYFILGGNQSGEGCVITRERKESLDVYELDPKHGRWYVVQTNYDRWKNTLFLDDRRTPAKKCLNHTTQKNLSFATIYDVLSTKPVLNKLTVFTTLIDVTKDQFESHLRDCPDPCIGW

[3] = target: T3, N-acylethanolamine acid amidase (rNAAA) (Rattus norvegicus, UniProt Q5KTC7); assay: enzyme inhibition IC50
T3 sequence (Q5KTC7 34-130): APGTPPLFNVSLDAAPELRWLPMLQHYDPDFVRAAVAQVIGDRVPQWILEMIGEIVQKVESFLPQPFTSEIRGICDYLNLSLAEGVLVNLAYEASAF
T3 sequence (Q5KTC7 131-362): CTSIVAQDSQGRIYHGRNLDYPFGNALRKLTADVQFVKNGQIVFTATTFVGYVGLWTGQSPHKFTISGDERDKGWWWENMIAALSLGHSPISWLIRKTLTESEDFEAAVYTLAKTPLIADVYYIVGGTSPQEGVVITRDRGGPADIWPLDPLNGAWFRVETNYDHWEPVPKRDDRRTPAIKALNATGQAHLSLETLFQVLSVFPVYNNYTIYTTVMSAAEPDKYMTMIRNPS

IC50 [2] [µM] | IC50 [3] [µM] | Compound | competitive ABPP against probe 1 in intact NAAA-HEK293 cells (40 μM) [1]
– | – | C[C@@H]1OC(=O)[C@@H]1NC(=O)OCCCCCc1ccccc1 [ARN077, 5-phenylpentyl N-[(2S,3R)-2-methyl-4-oxo-oxetan-3-yl]carbamate] | In either case, a decrease in signal intensity was observed, but a more pronounced masking of NAAA was noted
1.2 | 0.013 | C#CCCCCCCCCCOC(=O)N[C@H]1CNC1=O [compound 1, undec-10-ynyl N-[(3S)-2-oxoazetidin-3-yl]carbamate] | –
